Measurements: US20240109917A1 (ACTELION PHARMACEUTICALS LTD, priority 2020, published 2024)

Target: PDGFRβ (Rattus norvegicus (Rat), UniProt Q05030)
Test: PDGFRβ Cellular Assay (PDGFRb P-Y751 HTRF in A10 cells stimulated with PDGF-BB)
Format: cell-based
Details: read-out: PDGFR Cellular IC50
Outline: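 Rat A10 cells, plated overnight, were treated with compound for 3 hours, then stimulated with PDGF-BB (working stock 100 ng/mL in 10% FBS medium). After lysis, PDGFRβ P-Y751 was detected by HTRF.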

PDGFRβ, sequence (Q05030 32-1097): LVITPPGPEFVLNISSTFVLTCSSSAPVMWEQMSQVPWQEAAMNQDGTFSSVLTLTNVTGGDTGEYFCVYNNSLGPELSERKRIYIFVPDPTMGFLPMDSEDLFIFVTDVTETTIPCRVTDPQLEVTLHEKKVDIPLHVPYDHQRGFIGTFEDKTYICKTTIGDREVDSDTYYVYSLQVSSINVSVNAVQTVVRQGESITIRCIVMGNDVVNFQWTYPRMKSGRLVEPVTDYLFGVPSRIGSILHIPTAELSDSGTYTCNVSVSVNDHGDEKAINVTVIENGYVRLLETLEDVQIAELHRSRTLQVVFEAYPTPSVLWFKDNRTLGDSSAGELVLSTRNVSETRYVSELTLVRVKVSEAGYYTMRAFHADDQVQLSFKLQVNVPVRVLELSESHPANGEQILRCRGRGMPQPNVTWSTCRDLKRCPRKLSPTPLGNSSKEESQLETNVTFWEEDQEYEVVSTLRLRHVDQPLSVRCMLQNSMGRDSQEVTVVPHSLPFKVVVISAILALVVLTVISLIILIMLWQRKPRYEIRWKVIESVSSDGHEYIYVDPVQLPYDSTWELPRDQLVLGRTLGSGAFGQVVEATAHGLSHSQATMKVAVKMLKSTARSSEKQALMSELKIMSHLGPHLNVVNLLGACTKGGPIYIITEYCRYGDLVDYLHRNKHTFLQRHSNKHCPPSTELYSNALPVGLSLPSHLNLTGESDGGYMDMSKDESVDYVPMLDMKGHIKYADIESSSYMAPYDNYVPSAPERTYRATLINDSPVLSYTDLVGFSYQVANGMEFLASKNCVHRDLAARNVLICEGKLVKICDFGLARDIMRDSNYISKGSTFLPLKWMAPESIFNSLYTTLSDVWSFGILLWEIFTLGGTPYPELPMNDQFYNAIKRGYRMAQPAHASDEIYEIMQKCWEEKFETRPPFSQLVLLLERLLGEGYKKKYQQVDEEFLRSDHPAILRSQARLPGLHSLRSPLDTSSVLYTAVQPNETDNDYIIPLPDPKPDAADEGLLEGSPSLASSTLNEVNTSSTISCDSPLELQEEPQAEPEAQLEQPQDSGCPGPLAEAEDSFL

SMILES	IC50 [nM]
Cc1ncc(NC(=O)CN2CC(C)(C)C2)cc1NC(=O)c1cnn2cc(-c3cnn4c3COCC4)sc12 [Example 476, 2-(6,7-dihydro-4H-pyrazolo[5,1-c][1,4]oxazin-3-yl)-N-(5-(2-(3,3-dimethylazetidin-1-yl)acetamido)-2-methylpyridin-3-yl)pyrazolo[5,1-b]thiazole-7-carboxamide]	4.9
COCCn1cc(-c2cn3ncc(C(=O)Nc4cc(NC(=O)C5(CN6CCC[C@@H]6C)CC5)cnc4C)c3s2)cn1 [Example 452, (S)-2-(1-(2-methoxyethyl)-1H-pyrazol-4-yl)-N-(2-methyl-5-(1-((2-methylpyrrolidin-1-yl)methyl)cyclopropanecarboxamido)pyridin-3-yl)pyrazolo[5,1-b]thiazole-7-carboxamide]	91.6
CCCNCC(=O)Nc1cnc(C)c(NC(=O)c2cnn3cc(-c4cnn5c4CCC5)sc23)c1 [Example 456, 2-(5,6-dihydro-4H-pyrrolo[1,2-b]pyrazol-3-yl)-N-(2-methyl-5-(2-(propylamino)acetamido)pyridin-3-yl)pyrazolo[5,1-b]thiazole-7-carboxamide]	11
Cc1ncc(NC(=O)CN2CCC23CCC3)cc1NC(=O)c1cnn2cc(-c3cnn4c3COCC4)sc12 [Example 475, N-(5-(2-(1-azaspiro[3.3]heptan-1-yl)acetamido)-2-methylpyridin-3-yl)-2-(6,7-dihydro-4H-pyrazolo[5,1-c][1,4]oxazin-3-yl)pyrazolo[5,1-b]thiazole-7-carboxamide]	2.3
Cc1ncc(NC(=O)C[C@H]2CCN(C(C)C)C2)cc1NC(=O)c1cnn2cc(-c3cnn(C)c3)sc12 [Example 465, (R)—N-(5-(2-(1-isopropylpyrrolidin-3-yl)acetamido)-2-methylpyridin-3-yl)-2-(1-methyl-1H-pyrazol-4-yl)pyrazolo[5,1-b]thiazole-7-carboxamide]	1860
COCCn1cc(-c2cn3ncc(C(=O)Nc4cc(NC(=O)CCN5CCCC5(C)C)cnc4C)c3s2)cn1 [Example 41, N-(5-(3-(2,2-dimethylpyrrolidin-1-yl)propanamido)-2-methylpyridin-3-yl)-2-(1-(2-methoxyethyl)-1H-pyrazol-4-yl)pyrazolo[5,1-b]thiazole-7-carboxamide]	10
